Where two headings read alike, the source gives them in different places.
What was measured:
Erk1 [1] = molecular target: T1, Erk1 (Homo sapiens (Human), UniProt P27361); experiment: Protein Mass Modification Assay (intact protein MALDI); assay type: binding
Procedure, shortened: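 Human Erk1 was incubated 60 min at room temperature with a 10-fold molar excess of compound, then analysed as intact protein by MALDI with sinapinic acid matrix. The centroid mass shift versus untreated protein was divided by compound molecular weight to give percent modified protein.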
Target sequence in this assay (P27361 whole entry, looked up): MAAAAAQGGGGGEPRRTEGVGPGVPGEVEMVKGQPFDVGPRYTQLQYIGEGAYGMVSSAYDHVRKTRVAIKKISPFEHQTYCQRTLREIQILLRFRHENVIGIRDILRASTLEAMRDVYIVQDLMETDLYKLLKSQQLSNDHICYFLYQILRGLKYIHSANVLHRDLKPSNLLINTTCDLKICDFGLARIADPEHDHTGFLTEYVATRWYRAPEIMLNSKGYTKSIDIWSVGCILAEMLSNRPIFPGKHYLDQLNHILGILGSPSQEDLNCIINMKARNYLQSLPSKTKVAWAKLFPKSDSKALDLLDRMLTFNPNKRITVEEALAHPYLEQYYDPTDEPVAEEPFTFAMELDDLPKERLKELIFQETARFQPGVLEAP

MEK1 activated ERK1 = MEK1 activated ERK1 (Homo sapiens (Human), UniProt P27361); experiment: Omnia continuous-read kinase assay for potency against MEK1 activated ERK1; assay type: biochemical
Procedure, shortened: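 Apparent IC50 came from initial reaction slopes (RFU vs time) plotted against log inhibitor with a variable-slope fit. Reactions were started with ERK1 (4 nM final) added to 50 μM ATP, roughly at its appKM, and 10 μM Sox-conjugated ST17 peptide in 20 mM Tris pH 7.5, 5 mM MgCl2. Fluorescence was monitored every 71 seconds.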

[2] = system: ERK1 phosphorylation of its substrate RSK in HT29 cells; experiment: pRSK MSD Assay in HT29 cells; assay type: cell-based; settings: Homo sapiens, HT-29, HT29 cells; read-out: ERK1 PRSK MSD HT29 EC50
Procedure, shortened: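 HT29 cells were serum-starved overnight in 0.1% FBS, then treated with compound for 120 min at 37 °C. Lysates were assayed on MSD plates with RSK capture and phospho-RSK detection antibodies using electrochemiluminescence read-out.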

[3] = system: p-RSK (ERK activity) in cells after compound washout; experiment: Measurement of duration of action of test compounds (pRSK after washout); assay type: cell-based; settings: 6 hr after compound washout
Experimental: The protocol below describes an assay to measure the kinase activity of ERK1 to phosphorylate its substrate, RSK, in the presence of a test compound. This experiment was conducted using a Mesoscale Discovery plate. The day before the assay, HT29 cells were split and plated at 50,000 cells/well in complete growth media. After allowing cells to adhere, the media was removed and replaced with media containing 0.1% FBS and incubated overnight. Blank MDS plates were coated with 25 μl/well RSK capture antibody and incubated at 4° C. overnight. The next day, the media was removed and replaced with 100 μl of media containing a test compound and incubated for 120 minutes at 37° C. The media was removed and replaced with 55 μl of well lysis buffer with protease and phosphatase inhibitors provided in the kit, followed by incubation at 4° C. for 30 minutes. 50 μl of lysate was transferred to a blocked MSD plate, followed by incubation at room temperature for 2 hours under constant shaking. The plate was washed 3 times with MSD wash buffer (cat#R617TX), and 25 μl/well phospho-RSK (pRSK) detection antibody was added with an appropriate Sulfo-tagged anti-species detection antibody diluted in 1% BSA in MSD wash buffer. This mixture was incubated for 1 hour at room temperature under constant shaking. The plate was washed 3 times, and 150 μl 1×MSD read buffer was added, followed by signal detection in an MSD plate reader.
Measurement of Duration of Action of Test Compounds
One day before the assay, the cells were split and added at 50,000 cells per well in flat-bottom 96 well plate in 200 μl of growth media. The next day, the medium was discarded, 100 μl medium containing test compounds was added, and the plate was incubated at 37° C. for 120 minutes. The medium was discarded, and the cells were rinsed 3 times with PBS followed by addition of 200 μl of fresh grow medium. The plate was returned to a 37° C. incubator, and separate cell lysates were made using MSD lysis buffer after 0.25, 0.5, 1, 2, 4, 6, 8 and 18 or 24 hours. Thereafter, pRSK was measured as described above in the section entitled pRSK MSD Assay. The data is presented in Table A under the column titled “p-RSK inhibition at 6 hr (%).”

Erk1 [4] = molecular target: T1, Erk1; experiment: Measurement of Erk occupancy with biotinylated covalent probe I-299; assay type: cell-based; settings: HT-29 cells
Experimental: Measurement of Erk Occupancy with Biotinylated Covalent Probe
This experiment measured occupancy of the ERK1 target by compounds according to the invention. This experiment was conducted using the Mesoscale Discovery test kit (Cat. #N45107B). One day before the assay, cells were split and added at 50,000 cells per well to a flat-bottom 96 well plate in 200 μl of growth medium. The next day, the medium was discarded, 100 μl medium containing test compound was added, and the plate was incubated at 37° C. for 120 minutes. The plate was rinsed once with PBS, and 50 μl lysis buffer with test compound was added. The plate was incubated at 4° C. for 30 min, and 30 μl of lysate was transferred to a plate to capture total and phosphor-Erk. Biotinylated probe I-299 was diluted in lysis buffer and added to each well to a final concentration of 0.2 μM. The plate was incubated for 2 hr under constant shaking at room temperature. The plate was washed 3 times with MSD wash buffer. To detect the biotinylated probe bonding, tagged streptavidin was added (MSD, Cat#R32AD-1) at 1 μg/ml, 25 μl/well, followed by a 60 min incubation under shaking. The plate was washed 3 times, 150 μl MSD Read Buffer (Cat#R61TX) was added and the plate was read in a plate reader manufactured by MSD. Percent occupancy by test compound at Erk was calculated by comparing the chemiluminescence readings from treated cells as compared to the chemiluminescence readings in untreated controls (which are defined as 100% probe bonding or 0% occupancy). The amount of covalent probe signal divided by the amount of ERK signal for samples with no test compound treatment represents the maximum probe signal (MPS). In samples treated with test compound prior to covalent probe, the ratio of probe signal to ERK signal (the test probe signal, TPS) was reduced by the degree of target occupancy by the test compound which blocks covalent probe binding. The difference between the MPS and the TPS, divided by the MPS gave the target occupancy by the test compound. This ratio was then expressed as a percent occupancy. Results from this assay are provided in Table A below under the column “Occupancy EC50 (nM) HT-29.”
Target sequence in this assay (P27361 2-379 limits assumed): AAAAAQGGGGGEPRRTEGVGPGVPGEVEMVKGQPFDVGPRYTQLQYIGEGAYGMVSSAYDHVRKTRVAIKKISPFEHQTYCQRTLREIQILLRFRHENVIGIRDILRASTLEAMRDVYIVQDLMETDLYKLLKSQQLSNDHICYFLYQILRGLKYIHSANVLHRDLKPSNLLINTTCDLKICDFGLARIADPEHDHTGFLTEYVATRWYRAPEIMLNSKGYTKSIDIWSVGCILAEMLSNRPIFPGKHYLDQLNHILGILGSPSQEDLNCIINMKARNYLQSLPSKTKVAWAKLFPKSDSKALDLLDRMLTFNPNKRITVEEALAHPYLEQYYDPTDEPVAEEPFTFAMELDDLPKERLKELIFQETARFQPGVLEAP

[5] = MEK1 activated ERK1, WT, ATP at KM

MEK1 activated ERK1, sequence (P27361 whole entry): as the sequence (P27361 whole entry, looked up) above

| ERK1 Mass Mod (%) (Erk1 [1]) | IC50 (MEK1 activated ERK1; [5]) [nM] | EC50 [2] [nM] | EC50 (Erk1 [4]) [nM] | SMILES | p-RSK inhibition at 6 hr (%) [3] | IC50 (MEK1 activated ERK1; read-out: ERK1 Omnia WT ATP KM IC50) [nM] |
| --- | --- | --- | --- | --- | --- | --- |
| E (provided a mass modification of ≧70%) | < 100 | – | < 100 | C=CC(=O)Nc1ccccc1Nc1nc(Nc2cc(CO)c(F)cc2C)ncc1C(F)(F)F [Compound I-77, N-(2-((2-((4-Fluoro-5-(hydroxymethyl)-2-methylphenyl)amino)-5-(trifluoromethyl)pyrimidin-4-yl)amino)phenyl)acrylamide] | – | – |
| G (proived a mass modification ≦30%) | 101 to 500 | – | – | C=CC(=O)Nc1ccccc1Nc1nc(Nc2cc(OC)ncc2C)ncc1C(F)(F)F [Compound I-85, N-(2-((2-((2-Methoxy-5-methylpyridin-4-yl)amino)-5-(trifluoromethyl)pyrimidin-4-yl)amino)phenyl)acrylamide] | E (provided a p-RSK inhibition percent of ≧70%) | – |
| – | < 100 | – | – | C=CC(=O)Nc1ccccc1Nc1nc(Nc2cncc(OC)c2)ncc1C(F)(F)F [Compound I-86, N-(2-((2-((5-Methoxypyridin-3-yl)amino)-5-(trifluoromethyl)pyrimidin-4-yl)amino)phenyl)acrylamide] | E (provided a p-RSK inhibition percent of ≧70%) | – |
| E (provided a mass modification of ≧70%) | < 100 | – | – | C=CC(=O)Nc1ccccc1Nc1nc(Nc2cc(OC)ncc2C)ncc1Cl [Compound I-240, N-(2-((5-chloro-2-((2-methoxy-5-methylpyridin-4-yl)amino)pyrimidin-4-yl)amino)phenyl)acrylamide] | E (provided a p-RSK inhibition percent of ≧70%) | – |
| E (provided a mass modification of ≧70%) | < 100 | – | – | C=CC(=O)Nc1cc(C)ccc1Nc1nc(Nc2cc(OC)ncc2C)ncc1Cl [Compound I-241, N-(2-((5-chloro-2-((2-methoxy-5-methylpyridin-4-yl)amino)pyrimidin-4-yl)amino)-5-methylphenyl)acrylamide] | E (provided a p-RSK inhibition percent of ≧70%) | – |

The remaining lines, values behind:

| SMILES | ERK1 Mass Mod (%) (Erk1 [1]) | IC50 (MEK1 activated ERK1; [5]) [nM] | EC50 [2] [nM] | EC50 (Erk1 [4]) [nM] | p-RSK inhibition at 6 hr (%) [3] | IC50 (MEK1 activated ERK1; read-out: ERK1 Omnia WT ATP KM IC50) [nM] |
| --- | --- | --- | --- | --- | --- | --- |
| C=CC(=O)Nc1ccccc1Nc1nc(N[C@H]2CCCN(C(=O)CO)C2)ncc1C(F)(F)F [Compound I-15, (S)—N-(2-((2-((1-(2-hydroxyacetyl)piperidin-3-yl)amino)-5-(trifluoromethyl)pyrimidin-4-yl)amino)phenyl)acrylamide] | E (provided a mass modification of ≧70%) | < 100 | < 100 | – | E (provided a p-RSK inhibition percent of ≧70%) | – |
| C=CC(=O)Nc1cc(C)ccc1Nc1nc(Nc2cc(C(N)=O)ccc2C)ncc1C(F)(F)F [Compound I-79, 3-((4-((2-Acrylamido-4-methylphenyl)amino)-5-(trifluoromethyl)pyrimidin-2-yl)amino)-4-methylbenzamide] | E (provided a mass modification of ≧70%) | – | – | – | E (provided a p-RSK inhibition percent of ≧70%) | – |
| C=CC(=O)Nc1cc(C)ccc1Nc1nc(N[C@H]2CCCN(C(=O)CO)C2)ncc1Cl [Compound I-140, (S)—N-(2-((5-chloro-2-((1-(2-hydroxyacetyl)piperidin-3-yl)amino)pyrimidin-4-yl)amino)-5-methylphenyl)acrylamide] | E (provided a mass modification of ≧70%) | < 100 | – | – | F (provided a p-RSK inhibition percent of 31-69%) | – |
| C=CC(=O)Nc1ccccc1Nc1nc(Nc2cc(S(N)(=O)=O)ccc2C)ncc1Cl [Compound I-205, N-(2-((5-chloro-2-((2-methyl-5-sulfamoylphenyl)amino)pyrimidin-4-yl)amino)phenyl)acrylamide] | E (provided a mass modification of ≧70%) | < 100 | – | < 100 | – | – |
| C=CC(=O)Nc1cc(F)ccc1Nc1nc(Nc2cc(C(N)=O)ccc2C)ncc1Cl [Compound I-206, 3-((4-((2-acrylamido-4-fluorophenyl)amino)-5-chloropyrimidin-2-yl)amino)-4-methylbenzamide] | E (provided a mass modification of ≧70%) | < 100 | – | < 100 | – | – |
| C=CC(=O)Nc1ccccc1Nc1nc(Nc2ccc(F)cc2C#N)ncc1Cl [Compound I-211, N-(2-((5-chloro-2-((2-cyano-4-fluorophenyl)amino)pyrimidin-4-yl)amino)phenyl) acrylamide] | F (provided a mass modification of 31-69%) | < 100 | – | < 100 | – | – |
| C=CC(=O)Nc1cc(F)ccc1Nc1nc(Nc2ccc(F)cc2C)ncc1Cl [Compound I-212, N-(2-((5-chloro-2-((4-fluoro-2-methylphenyl)amino)pyrimidin-4-yl)amino)-5-fluorophenyl)acrylamide] | F (key: E: provided a mass modification of ≧70%; F: provided a mass modification of 31-69%; G: proived a mass modification ≦30%) | – | – | < 100 | – | < 100 |
| C=CC(=O)Nc1ccccc1Nc1nc(Nc2cc(C(N)=O)c(F)cc2C)ncc1Cl [Compound I-214, 5-((4-((2-acrylamidophenyl)amino)-5-chloropyrimidin-2-yl)amino)-2-fluoro-4-methylbenzamide] | F (provided a mass modification of 31-69%) | < 100 | – | < 100 | – | – |
| C=CC(=O)Nc1cc(C)ccc1Nc1nc(Nc2cc(C(N)=O)ccc2C)ncc1Cl [Compound I-229, 3-((4-((2-acrylamido-4-methylphenyl)amino)-5-chloropyrimidin-2-yl)amino)-4-methylbenzamide] | E (provided a mass modification of ≧70%) | < 100 | – | – | E (provided a p-RSK inhibition percent of ≧70%) | – |
| C=CC(=O)Nc1cc(OC)ccc1Nc1nc(Nc2cc(OC)ncc2C)ncc1Cl [Compound I-242, N-(2-((5-chloro-2-((2-methoxy-5-methylpyridin-4-yl)amino)pyrimidin-4-yl)amino)-5-methoxyphenyl)acrylamide] | E (provided a mass modification of ≧70%) | < 100 | – | – | E (provided a p-RSK inhibition percent of ≧70%) | – |
| C=CC(=O)Nc1ccccc1Nc1nc(Nc2cc(C(N)=O)ccc2C)ncc1Cl [Compound I-319, 3-(4-(2-acrylamidophenylamino)-5-chloropyrimidin-2-ylamino)-4-methylbenzamide] | E (provided a mass modification of ≧70%) | < 100 | – | < 100 | – | – |

Source: US9796700B2 (Celgene CAR LLC, priority 2013, dated 2017)
